Here are results for 14 compounds from patent US9896441B2 (Lycera Corporation, priority 2014, dated 2018).

Assay [1] concerns the target T1, RORγ-LBD (Homo sapiens, UniProt P51449).
T1 construct: made in house; host or cells: SF9 cells (baculovirus); used as diluted lysate
T1 sequence (P51449 269-508 limits assumed): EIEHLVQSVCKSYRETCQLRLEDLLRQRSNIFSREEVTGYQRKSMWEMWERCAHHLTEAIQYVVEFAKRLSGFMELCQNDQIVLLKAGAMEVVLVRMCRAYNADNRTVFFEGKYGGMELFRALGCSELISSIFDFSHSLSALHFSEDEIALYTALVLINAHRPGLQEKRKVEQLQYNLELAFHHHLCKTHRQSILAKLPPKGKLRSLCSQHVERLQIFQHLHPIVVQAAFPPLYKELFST
Kind of assay: RORγ-Ligand Binding Domain (LBD) TR-FRET Assay.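 As to TR-FRET Assay Max Response: 665/615 nm signal ratio set to 100 without ursolic acid or test compound.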 It is filed as biochemical. To be noted: RORγ-LBD TR-FRET assay; for TR-FRET Assay Max Response: maximum response. The method in brief: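 This TR-FRET coactivator assay pairs baculovirus-expressed His-RORγ-LBD (~3 nM final) with biotin-SRC1 LXXLL peptide at 200 nM final in pH 7.0 Tris/KCl/EDTA/DTT/BSA buffer.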

In assay [2] the target is T2, Gal4-RORγ-LBD (Homo sapiens, UniProt P51449).
T2 construct: expressed in transfected cells
T2 sequence (P51449 269-508 limits assumed): T1 sequence (P51449 269-508 limits assumed)
Kind of assay: Gal4-RORγ Luciferase Reporter Assay in HEK-293T Cells. To be noted: HEK-293 cells, luciferase reporter, in presence of ursolic acid; for Gal4-RORγ Assay Max Response: maximum response. It is filed as cell-based. The method, boiled down:
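HEK-293 cells were co-transfected with Gal4-RORγ-LBD and a Gal4-luciferase reporter, then exposed overnight at 37 °C to compounds with […] ursolic acid present (0.2% DMSO). Luminescence was read with One-Glo after 10 min at RT, untreated signal was set as 100, and Max Response was taken as the upper plateau of a 4-parameter logistic fit.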

For orientation: EC50 means the concentration needed to bring the measured effect to its halfway point.

Take `C/C(=C\c1ccc2c(c1)N(S(=O)(=O)c1cccc(C(F)(F)F)c1)C[C@H](CCO)O2)c1c(F)cccc1Cl` [Example 106, (S,E)-2-(6-(2-(2-Chloro-6-fluorophenyl)prop-1-en-1-yl)-4-((3-(trifluoromethyl)phenyl)sulfonyl)-3,4-dihydro-2H-benzo[b][1,4]oxazin-2-yl)ethanol]: in assay [1], the EC50 was below 500 nM and the “TR-FRET Assay Max Response” value is recorded as “*** (a value in the range of greater than 150 to 200)”. Besides, in assay [2], the half-maximal effective concentration (EC50) is below 500 nM and the “Gal4-RORγ Assay Max Response” value was “** (a value in the range of greater than 90 to 150)”.

As for `C/C(=C\c1ccc2c(c1)N(S(=O)(=O)c1cccc(C(F)(F)F)c1)C[C@H](CC(=O)O)O2)c1c(F)cccc1Cl` [Example 107, (S,E)-2-(6-(2-(2-Chloro-6-fluorophenyl)prop-1-en-1-yl)-4-((3-(trifluoromethyl)phenyl)sulfonyl)-3,4-dihydro-2H-benzo[b][1,4]oxazin-2-yl)acetic acid], in assay [1], the EC50 is below 500 nM and the “TR-FRET Assay Max Response” value was “** (a value in the range of greater than 90 to 150)”. In assay [2], the EC50 lay in the range of 500 to 5000 nM and the “Gal4-RORγ Assay Max Response” value was “** (a value in the range of greater than 90 to 150)”.

With `COc1cc(S(=O)(=O)N2C[C@H](CNC(C)=O)Oc3c(F)cc(/C=C(\C)c4c(F)cccc4Cl)cc32)ccc1F` [Example 108, (S,E)-N-((6-(2-(2-Chloro-6-fluorophenyl)prop-1-en-1-yl)-8-fluoro-4-((4-fluoro-3-methoxyphenyl)sulfonyl)-3,4-dihydro-2H-benzo[b][1,4]oxazin-2-yl)methyl)acetamide], in assay [1], the EC50 was below 500 nM and the “TR-FRET Assay Max Response” value was “** (a value in the range of greater than 90 to 150)”. In assay [2], the concentration for a half-maximal effect (EC50) is below 500 nM and the “Gal4-RORγ Assay Max Response” value is reported as “* (a value in the range of 30 to 90)”.

Turning to `CCn1cc(S(=O)(=O)N2C[C@H](CNC(C)=O)Oc3c(F)cc(/C=C(\C)c4c(F)cccc4Cl)cc32)c(Cl)n1` [Example 109A, (S,E)-N-((4-((3-chloro-1-ethyl-1H-pyrazol-4-yl)sulfonyl)-6-(2-(2-chloro-6-fluorophenyl)prop-1-en-1-yl)-8-fluoro-3,4-dihydro-2H-benzo[b][1,4]oxazin-2-yl)methyl)acetamide], in assay [1], the half-maximal effective concentration (EC50) was below 500 nM and the “TR-FRET Assay Max Response” value is on record as “*** (a value in the range of greater than 150 to 200)”. Besides, in assay [2], the half-maximal effective concentration (EC50) is below 500 nM and the “Gal4-RORγ Assay Max Response” value is “* (a value in the range of 30 to 90)”.

For `COc1cc(S(=O)(=O)N2C[C@H](CNC(C)=O)Oc3ccc(/C=C(\C)c4c(F)cccc4Cl)cc32)ccc1F` [Example 109B, (S,E)-N-((6-(2-(2-chloro-6-fluorophenyl)prop-1-en-1-yl)-4-((4-fluoro-3-methoxyphenyl)-sulfonyl)-3,4-dihydro-2H-benzo[b][1,4]oxazin-2-yl)methyl)acetamide], in assay [1], the EC50 is below 500 nM and the “TR-FRET Assay Max Response” value is given as “** (a value in the range of greater than 90 to 150)”. Further, in assay [2], the half-maximal effective concentration (EC50) is below 500 nM and the “Gal4-RORγ Assay Max Response” value was “* (a value in the range of 30 to 90)”.

Take `CC(=O)NC[C@H]1CN(S(=O)(=O)c2cccc(C(F)(F)F)c2)c2cc(/C=C(\C)c3c(F)cccc3Cl)ccc2O1` [Example 109C, (S,E)-N-((6-(2-(2-chloro-6-fluorophenyl)prop-1-en-1-yl)-4-((3-(trifluoromethyl)phenyl)-sulfonyl)-3,4-dihydro-2H-benzo[b][1,4]oxazin-2-yl)methyl)acetamide]: in assay [1], the EC50 is below 500 nM and the “TR-FRET Assay Max Response” value is “** (a value in the range of greater than 90 to 150)”. For the same compound, in assay [2], the 50% effective concentration (EC50) is below 500 nM and the “Gal4-RORγ Assay Max Response” value is “** (a value in the range of greater than 90 to 150)”.

Turning to `CCn1cc(S(=O)(=O)N2C[C@H](CNC(C)=O)Oc3ccc(/C=C/c4c(F)cccc4Cl)cc32)c(Cl)n1` [Example 109D, (S,E)-N-((4-((3-chloro-1-ethyl-1H-pyrazol-4-yl)sulfonyl)-6-(2-chloro-6-fluorostyryl)-3,4-dihydro-2H-benzo[b][1,4]oxazin-2-yl)methyl)acetamide], in assay [1], the EC50 was below 500 nM and the “TR-FRET Assay Max Response” value is recorded as “*** (a value in the range of greater than 150 to 200)”. Moreover, in assay [2], the concentration for a half-maximal effect (EC50) is 500 to 5000 nM and the “Gal4-RORγ Assay Max Response” value is “** (a value in the range of greater than 90 to 150)”.

Take `CCn1cc(S(=O)(=O)N2C[C@H](CNC(C)=O)Oc3ccc(/C=C/c4ncccc4Cl)cc32)c(Cl)n1` [Example 109E, (S,E)-N-((4-((3-chloro-1-ethyl-1H-pyrazol-4-yl)sulfonyl)-6-(2-(3-chloropyridin-2-yl)vinyl)-3,4-dihydro-2H-benzo[b][1,4]-oxazin-2-yl)methyl)acetamide]: in assay [1], the EC50 is below 500 nM and the “TR-FRET Assay Max Response” value was “**** (a value greater than 200)”. Besides, in assay [2], the concentration giving a half-maximal response (EC50) is 500 to 5000 nM and the “Gal4-RORγ Assay Max Response” value is on record as “** (a value in the range of greater than 90 to 150)”.

On to `CCOc1ncc(C(F)(F)F)cc1S(=O)(=O)N1C[C@H](CNC(=O)CCC(=O)O)Oc2ccc(/C=C/c3c(F)cccc3Cl)cc21` [Example 109F, (S,E)-4-(((6-(2-chloro-6-fluorostyryl)-4-((2-ethoxy-5-(trifluoro-methyl)pyridin-3-yl)sulfonyl)-3,4-dihydro-2H-benzo[b][1,4]oxazin-2-yl)methyl)amino)-4-oxobutanoic acid], for which, in assay [1], the 50% effective concentration (EC50) is below 500 nM and the “TR-FRET Assay Max Response” value is “*** (a value in the range of greater than 150 to 200)”. In addition, in assay [2], the concentration giving a half-maximal response (EC50) lay within 500 to 5000 nM and the “Gal4-RORγ Assay Max Response” value was “** (a value in the range of greater than 90 to 150)”.

Consider `C/C(=C\c1ccc2c(c1)N(S(=O)(=O)c1cccc(C(F)(F)F)c1)C[C@H](CCNC(=O)OC(C)(C)C)O2)c1c(F)cccc1Cl` [Example 110, tert-Butyl (S,E)-(2-(6-(2-(2-chloro-6-fluorophenyl)prop-1-en-1-yl)-4-((3-(trifluoromethyl)phenyl)sulfonyl)-3,4-dihydro-2H-benzo[b][1,4]oxazin-2-yl)ethyl)carbamate], for which, in assay [1], the EC50 is below 500 nM and the “TR-FRET Assay Max Response” value was “*** (a value in the range of greater than 150 to 200)”. Further, in assay [2], the EC50 lay within 500 to 5000 nM and the “Gal4-RORγ Assay Max Response” value is “** (a value in the range of greater than 90 to 150)”.

For the compound `C/C(=C\c1ccc2c(c1)N(S(=O)(=O)c1cccc(C(F)(F)F)c1)C[C@H](CCN)O2)c1c(F)cccc1Cl` [Example 111, (S,E)-2-(6-(2-(2-Chloro-6-fluorophenyl)prop-1-en-1-yl)-4-((3-(trifluoromethyl)phenyl)sulfonyl)-3,4-dihydro-2H-benzo[b][1,4]oxazin-2-yl)ethan-1-amine], in assay [1], the EC50 was below 500 nM and the “TR-FRET Assay Max Response” value is “*** (a value in the range of greater than 150 to 200)”. In assay [2], the EC50 lay in the range of 500 to 5000 nM and the “Gal4-RORγ Assay Max Response” value is “** (a value in the range of greater than 90 to 150)”.

For `CC(=O)NCC[C@H]1CN(S(=O)(=O)c2cccc(C(F)(F)F)c2)c2cc(/C=C(\C)c3c(F)cccc3Cl)ccc2O1` [Example 112, (S,E)-N-(2-(6-(2-(2-Chloro-6-fluorophenyl)prop-1-en-1-yl)-4-((3-(trifluoromethyl)phenyl)sulfonyl)-3,4-dihydro-2H-benzo[b][1,4]oxazin-2-yl)ethyl)acetamide], in assay [1], the EC50 was below 500 nM and the “TR-FRET Assay Max Response” value was “*** (a value in the range of greater than 150 to 200)”. In assay [2], the concentration giving a half-maximal response (EC50) was below 500 nM and the “Gal4-RORγ Assay Max Response” value is recorded as “** (a value in the range of greater than 90 to 150)”.

With `C/C(=C\c1ccc2c(c1)N(S(=O)(=O)c1cccc(C(F)(F)F)c1)C[C@H](CCNC(=O)C1CC1)O2)c1c(F)cccc1Cl` [Example 113, (S,E)-N-(2-(6-(2-(2-Chloro-6-fluorophenyl)prop-1-en-1-yl)-4-((3-(trifluoromethyl)phenyl)sulfonyl)-3,4-dihydro-2H-benzo[b][1,4]oxazin-2-yl)ethyl)cyclopropanecarboxamide], in assay [1], the concentration for a half-maximal effect (EC50) is below 500 nM and the “TR-FRET Assay Max Response” value was “*** (a value in the range of greater than 150 to 200)”. In addition, in assay [2], the 50% effective concentration (EC50) is below 500 nM and the “Gal4-RORγ Assay Max Response” value is recorded as “** (a value in the range of greater than 90 to 150)”.

For the compound `C/C(=C\c1ccc2c(c1)N(S(=O)(=O)c1cccc(C(F)(F)F)c1)C[C@H](CCNS(C)(=O)=O)O2)c1c(F)cccc1Cl` [Example 114, (S,E)-N-(2-(6-(2-(2-Chloro-6-fluorophenyl)prop-1-en-1-yl)-4-((3-(trifluoromethyl)phenyl)sulfonyl)-3,4-dihydro-2H-benzo[b][1,4]oxazin-2-yl)ethyl)methanesulfonamide], in assay [1], the EC50 was below 500 nM and the “TR-FRET Assay Max Response” value is “*** (a value in the range of greater than 150 to 200)”. In assay [2], the 50% effective concentration (EC50) was below 500 nM and the “Gal4-RORγ Assay Max Response” value was “** (a value in the range of greater than 90 to 150)”.
